What was measured:
[1] = IV pharmacokinetics of Compound 1 and its glucuronides in rats; format: in vivo, rat; conditions: Sprague Dawley, rat, plasma, Compound 1 2 mg/kg IV
Protocol: Two separate IV studies were carried out using two separate lots of animals. IV-A was run on the same lot of animals as the oral gavage study and IV-B was run on the same lot of animals as the intraduodenal and intra-colonic studies.
For the IV dosing solutions (IV), Compound 1 was prepared by addition to DI water containing 20% hydroxypropyl β-cyclodextran by weight.
For the IV and oral gavage dosing (sampling at jugular and portal vein), young adult male Sprague Dawley rats weighing 250-400 g were purchased from Hilltop Lab Animals Inc. All rat experiments were conducted under approved animal protocols. The rats for the oral gavage dosing were catheterized at Hilltop Lab Animals Inc, had two chronic catheters for sampling: jugular and portal, were housed in cages of Culex™ Automated Blood Sampler (ABS) and blood samples were collected simultaneously via both cannula and were controlled by the Culex™ ABS control software.
(§1) A quantitative method for determining the amount of (6,7-dimethoxy-2,4-dihydro-indeno[1,2-c]pyrazol-3-yl)-(3-fluoro-phenyl)-amine Compound 1 and its major metabolites, glucuronide A (Cpd 1-GluA) and glucuronide B (Cpd 1-GluB) (see Scheme A) in rat plasma was developed using phenacetin as an internal standard. [drawing 1]
(§2) The two glucuronide conjugates were prepared and purified to permit accurate quantification of the levels of intact parent Compound 1 versus Cpd 1-GluA and Cpd 1-GluB. Each standard curve for Compound 1, Cpd 1-GluA, and Cpd 1-GluB generated from rat plasma included ten concentration levels. […] The quantitative procedure for each sample included: sample preparation, HPLC separation and mass spectrometry detection.
(§3) The rat plasma was prepared using protein precipitation techniques. Reference standards and quality control samples in rat plasma for Compound 1 were transferred to a 96 deep-well plate. The precipitation solution contained 100 ng/ml of internal standard in acetonitrile. 300 μl of precipitation solution were added to 100 μl of each standard, quality control and plasma sample. Samples were vortexed for 10 mins, then centrifuged at 4500 RPM for 10 mins. 10 μl of each sample were injected for LC/MS/MS analysis.
(§4) The HPLC column chosen for the bioanalysis was purchased from Thermo Electron (Hypersil BetaBasic C18, 5 cm×2.1 mm). The eluting solvents were composed of Solvent A: 0.1% formic acid in H2O and Solvent B: 0.1% formic acid in acetonitrile. A step gradient was used and flow rate was 300 μl/min. The total run time was 3.2 mins. Solvent B was increased from 35% at 0 min to 75% at 2.1 mins and decreased back to 35% at 2.2 mins. The retention times for Compound 1, phenacetin, Cpd 1-GluA and Cpd 1-GluB were 1.1 min, 0.9 min, 1.3 min, and 1.6 min, respectively.
API3000 with a Turbo Ionspray interface from Applied Biosystems was used for the detection of Compound 1, the internal standard and major metabolites. Electrospray ionization was performed in the positive ion mode heated nebulizer with a temperature of 300° C. LC/MS/MS chromatograms were acquired in MRM (multiple reaction mode). The MRM transitions for Compound 1, the internal standard, Cpd 1-GluA and Cpd 1-GluB were from 326.3 to 190.6, 181.1 to 110.3, 502.2 to 368.3 and 502.2 to 326.4, respectively.
Pharmacokinetic analysis of the plasma concentration data was performed to determine the maximum plasma concentration (Cmax) for the oral dose, and the concentration at zero time (C0; Compound 1 only) by the extrapolation of drug concentrations back to the time of i.v. dosing, the time to maximum plasma concentration (Tmax) following the oral dose, area under the plasma concentration vs. time curve (AUC), terminal half-life (t1/2), plasma clearance (CL/F; Compound 1 only), and volume of distribution at steady state (Vdss; Compound 1 only) for the i.v. dose, using the WinNonlin (Version 3.1, Pharsight, Palo Alto, Calif.) validated computer program.

[2] = Intracolonic dosing with and without β-glucuronidase, catheterized rat; format: in vivo; conditions: for AUC / Cmax / concentration at 0 h / concentration at 0.25 h / concentration at 0.5 h / concentration at 1 h / concentration at 2 h / concentration at 3 h / concentration at 4 h / concentration at 5 h / concentration at 6 h: male, Sprague Dawley, rat, plasma; for AUC / Cmax / concentration at 0 h / concentration at 0.25 h / concentration at 0.5 h / concentration at 1 h / concentration at 2 h / concentration at 3 h / concentration at 4 h / concentration at 5 h / concentration at 6 h / AUC average ± standard deviation 0 to 6 hours: 10 mg/kg, rats N=6; for AUC: read-out: AUC average ± standard deviation 0 to 6 hours; for Cmax: read-out: Cmax average ± standard deviation; for concentration at 0 h / concentration at 0.25 h / concentration at 0.5 h / concentration at 1 h / concentration at 2 h / concentration at 3 h / concentration at 4 h / concentration at 5 h / concentration at 6 h: other: intracolonic
Protocol: A catheterized rat model was used in which the agent alone or agent and β-glucuronidase enzyme was administered intraduodenally or intracolonically. The intraduodenal and intracolonic dosing was intended to prevent the potential for loss of enzymatic activity when orally dosing the β-glucuronidase (e.g. by degradation in the stomach). […]
For the oral gavage dosing, Compound 1 was prepared in neat PEG-400. For the intraduodenal and intracolonic dosing solutions, Compound 1 was added to neat Tween 80, the mixture was sonicated for thirty minutes at 45° C. until Compound 1 was completely dissolved and then deionized (DI) water was added to form a solution consisting of 20% Tween 80 and 80% DI water by weight.
For the oral enzyme solutions, β-glucuronidase was added to the final formulation at a concentration of 57,600 units/ml.
For the intraduodenal and intracolonic dosing, male Sprague Dawley rats weighing 300-400 g were purchased from Charles River Labs. All rat experiments were conducted under approved animal protocols. The rats were catheterized at Charles River Labs and had one or more of the following chronic catheters for dosing and sampling: jugular/carotid, duodenal, and colonic. Rats were limited to only one GI catheter and one vascular catheter. For IV dosing, rats were purchased with jugular and carotid catheters for dosing in the jugular catheter and blood sampling through the carotid catheter. For intraduodenal/intracolonic dosing, rats had one of the GI catheters for dosing and a carotid catheter for blood sampling.
The surgeries were done two weeks prior to start of testing. Rats were fed 4 hours post dose administration. All rats were dosed without anesthesia and sacrificed at the end of the study.
as §1, §2, §3, §4
API3000 with a Turbo Ionspray interface from Applied Biosystems was used for the detection of Compound 1, the internal standard and major metabolites. Electrospray ionization was performed in the positive ion mode heated nebulizer with a temperature of 300° C. LC/MS/MS chromatograms were acquired in MRM (multiple reaction mode). […]

[3] = Compound 1 10 mg/kg intracolonic with β-glucuronidase
[4] = Compound 1 10 mg/kg intracolonic without enzyme

In the case of `COc1cc2c(cc1OC)-c1n[nH]c(N(c3cccc(F)c3)[C@H]3O[C@@H](C(=O)O)[C@H](O)[C@@H](O)[C@@H]3O)c1C2` [Cpd 1-GluA], the AUC ([1]; male rats N=4, read-out: AUC average ± standard deviation) is reported as 8210 ng·h/mL, the Cmax ([1]; male rats N=4, read-out: Cmax average ± standard deviation) is reported as 2970 ng/mL and the concentration at 0 h ([1]; male rats N=4, retro orbital sinus, 0 hrs) is reported as 0 ng/mL. The concentration at 0.08 h ([1]; male rats N=4, retro orbital sinus, 0.08 hrs) was 2440 ng/mL, the concentration at 0.33 h ([1]; male rats N=4, retro orbital sinus, 0.33 hrs) was 2970 ng/mL and the concentration at 1 h ([1]; male rats N=4, retro orbital sinus, 1 hr) was 1670 ng/mL. It also gave a concentration at 2 h ([1]; male rats N=4, retro orbital sinus, 2 hrs) of 492 ng/mL, a concentration at 4 h ([1]; male rats N=4, retro orbital sinus, 4 hrs) of 68.6 ng/mL and a concentration at 8 h ([1]; male rats N=4, retro orbital sinus, 8 hrs) of 369 ng/mL. The concentration at 24 h ([1]; male rats N=4, retro orbital sinus, 24 hrs) was 18.6 ng/mL, the Tmax ([1]; male rats) was 18 min and the AUC [2, 3] was 1770 ng·h/mL. For the same compound, the Cmax [2, 3] was 755 ± 509 ng/mL, the AUC [2, 4] was 5060 ng·h/mL and the Cmax [2, 4] was 1550 ± 1050 ng/mL. The concentration at 0 h [2, 3] was 0 ng/mL, the concentration at 0.25 h [2, 3] was 6450 ng/mL and the concentration at 0.5 h [2, 3] was 4820 ng/mL. For the same compound, the concentration at 1 h [2, 3] was 3860 ng/mL, the concentration at 2 h [2, 3] was 812 ± 426 ng/mL and the concentration at 3 h [2, 3] was 462 ± 208 ng/mL. The concentration at 4 h [2, 3] was 480 ± 107 ng/mL, the concentration at 5 h [2, 3] was 420 ± 74.1 ng/mL and the concentration at 6 h [2, 3] was 462 ± 113 ng/mL. It also gave a concentration at 0 h [2, 4] of 0 ng/mL, a concentration at 0.25 h [2, 4] of 666 ± 198 ng/mL and a concentration at 0.5 h [2, 4] of 6450 ng/mL. It also gave a concentration at 1 h [2, 4] of 4820 ng/mL, a concentration at 2 h [2, 4] of 3860 ng/mL and a concentration at 3 h [2, 4] of 66.6 ± 42 ng/mL. It also gave a concentration at 4 h [2, 4] of 88.2 ± 53.9 ng/mL, a concentration at 5 h [2, 4] of 83.1 ± 23.2 ng/mL and a concentration at 6 h [2, 4] of 90.2 ± 28.1 ng/mL. The “AUC intracolonic relative to intraduodenal” value ([2]; no enzyme present) was 4.3 times, the “AUC average ± standard deviation 0 to 6 hours” value [2, 3] was 1,767.6 ± 1,282.3 ng · hr/ml and the “AUC average ± standard deviation 0 to 6 hours” value [2, 4] was 5061.9 ± 1,656.0 ng · hr/ml.
